Measurements: US20120121591A1 (priority 2009, published 2012)
Like-named read-outs stand apart in the source and are kept apart here.

Tested on: IL-2 secretion from T cells in human whole blood
Assay type: cell-based
[1] = read-out: WB (IL-2) IC50 (nM, Avg)

Compound	IC50 [1]	further results
CC[C@H](C)[C@@H]1NC(=O)[C@@H](NC(=O)[C@H](CO)NC(=O)[C@@H](N)CCCNC(=N)N)CSSC[C@@H](C(=O)O)NC(=O)[C@H]([C@@H](C)O)NC(=O)CNC(=O)[C@@H]2CSSC[C@@H]3NC(=O)[C@H](CCC(N)=O)NC(=O)[C@H](Cc4ccccc4)NC(=O)[C@H](C)NC(=O)[C@H]([C@@H](C)O)NC(=O)[C@H](CSSC[C@H](NC(=O)[C@H](Cc4ccccc4)NC(=O)[C@H](CO)NC(=O)[C@H](CC(C)C)NC(=O)[C@H](CCCNC(=N)N)NC(=O)[C@H](Cc4ccc(O)cc4)NC(=O)[C@H](CCCCN)NC(=O)[C@H](CCSC)NC(=O)[C@H](CO)NC(=O)[C@H](Cc4c[nH]cn4)NC(=O)[C@H](CCCCN)NC3=O)C(=O)N[C@@H](CCCNC(=N)N)C(=O)N[C@@H](CCCCN)C(=O)N[C@@H]([C@@H](C)O)C(=O)N2)NC(=O)[C@H](CCCCN)NC(=O)[C@H](CO)NC(=O)[C@H](CCCCN)NC(=O)[C@@H]2CCCN2C(=O)[C@H]([C@@H](C)CC)NC(=O)[C@H]([C@@H](C)O)NC(=O)[C@H](CC(=O)O)NC1=O [[Lys11]ShK]	0.095 nM	–
CC[C@H](C)[C@@H]1NC(=O)[C@@H](NC(=O)[C@H](CO)NC(=O)[C@@H](N)CCCNC(=N)N)CSSC[C@@H](C(N)=O)NC(=O)[C@H]([C@@H](C)O)NC(=O)CNC(=O)[C@@H]2CSSC[C@@H]3NC(=O)[C@H](CCCCN)NC(=O)[C@H](Cc4ccccc4)NC(=O)[C@H](C)NC(=O)[C@H]([C@@H](C)O)NC(=O)[C@H](CSSC[C@H](NC(=O)[C@H](Cc4ccccc4)NC(=O)[C@H](CO)NC(=O)[C@H](CC(C)C)NC(=O)[C@H](CCCNC(=N)N)NC(=O)[C@H](Cc4ccc(O)cc4)NC(=O)[C@H](CCCCN)NC(=O)[C@H](CCSC)NC(=O)[C@H](CO)NC(=O)[C@H](Cc4c[nH]cn4)NC(=O)[C@H](CCCCN)NC3=O)C(=O)N[C@@H](CCCNC(=N)N)C(=O)N[C@@H](CCCCN)C(=O)N[C@@H]([C@@H](C)O)C(=O)N2)NC(=O)[C@H](CCCNC(=N)N)NC(=O)[C@H](CO)NC(=O)[C@H](CCCCN)NC(=O)[C@@H]2CCCN2C(=O)[C@H]([C@@H](C)CC)NC(=O)[C@H]([C@@H](C)O)NC(=O)[C@H](CC(=O)O)NC1=O [[Lys16]ShK-amide]	–	IC50 (read-out: WB (IL-2) IC50): 0.1 nM
CC[C@H](C)[C@@H]1NC(=O)[C@@H](NC(=O)[C@H](CO)NC(=O)[C@@H](N)CCCNC(=N)N)CSSC[C@@H](C(=O)O)NC(=O)[C@H]([C@@H](C)O)NC(=O)CNC(=O)[C@@H]2CSSC[C@@H]3NC(=O)[C@H](CCC(N)=O)NC(=O)[C@H](Cc4ccccc4)NC(=O)[C@H](C)NC(=O)[C@H]([C@@H](C)O)NC(=O)[C@H](CSSC[C@H](NC(=O)[C@H](Cc4ccccc4)NC(=O)[C@H](CO)NC(=O)[C@H](CC(C)C)NC(=O)[C@H](CCCCN)NC(=O)[C@H](Cc4ccc(O)cc4)NC(=O)[C@H](CCCCN)NC(=O)[C@H](CCSC)NC(=O)[C@H](CO)NC(=O)[C@H](Cc4c[nH]cn4)NC(=O)[C@H](CCCCN)NC3=O)C(=O)N[C@@H](CCCNC(=N)N)C(=O)N[C@@H](CCCCN)C(=O)N[C@@H]([C@@H](C)O)C(=O)N2)NC(=O)[C@H](CCCNC(=N)N)NC(=O)[C@H](CO)NC(=O)[C@H](CCCCN)NC(=O)[C@@H]2CCCN2C(=O)[C@H]([C@@H](C)CC)NC(=O)[C@H]([C@@H](C)O)NC(=O)[C@H](CC(=O)O)NC1=O [[Lys24]ShK]	0.044 nM	–
Fc.L20FcLoopShk (scFc): single-chain Fc with ShK inserted in the second Fc domain, 20-residue linker	–	IC50 (read-out: In Vitro IC50, whole blood assay (inhibition of IL-2), average results): 2.01 nM
